The source of these data is patent US20250163078A1, “IMIDAZOPYRIDAZINE DERIVATIVE, AND PREPARATION METHOD THEREFOR, PHARMACEUTICAL COMPOSITION THEREOF AND USE THEREOF” (SHANGHAI SIMR BIOTECHNOLOGY CO., LTD., priority 2022, published 2025).

The term Ki denotes a dissociation constant, usually derived from enzyme kinetics or from competition with a known ligand.

Assay [1] concerns the target T1, α2-GABAA receptor (Homo sapiens, UniProt P18507+P47869).
T1 construct: expressed in transfected cells
The experiment in a line: Radioligand (3H-flunitrazepam) competitive binding assay at the BZD site. The note with it: membranes of HEK293 cells stably expressing human α2-GABAA receptor (α2β3γ2); 1 nM 3H-flunitrazepam; Ki calculated from IC50; read-out: α2 Ki. The text has this:
(§1) An α subunit, a β subunit, and a γ subunit are essential for the formation of a complete functional GABAA receptor. […] The α1-GABAAR-HEK293 cell model simultaneously expressed the α1 subunit (protein sequence available in GenBank with an accession No.: NM_000806.5), the β3 subunit (protein sequence available in GenBank with an accession No.: NM_000814.5), and the γ2 subunit (protein sequence available in GenBank with an accession No.: NM_000816.3). The α2-GABAAR-HEK293 cell model simultaneously expressed the α2 subunit (protein sequence available in GenBank with an accession No.: NM_000807.4), the β3 subunit (protein sequence available in GenBank with an accession No.: NM_000814.5), and the γ2 subunit (protein sequence available in GenBank with an accession No.: NM_000816.3).
(§2) The above cell lines were subcultured. The α2-GABAAR-HEK293 cells were expanded for assay of the benzodiazepine (BZD) site affinity of compounds for GABAA receptors.
The affinity of the compounds for the α2-GABAA receptor was determined by competing with ^3H-flunitrazepam (isotope ^3H-labelled flunitrazepam) for binding to the BZD site on the membrane proteins of HEK293 cells stably expressing the human α2-GABAA receptor.
Membrane preparation: The cells were suspended in 50 mM Tris-HCl buffer (pH=7.4), homogenized 10 times (20 s for each time) with a homogenizer on ice, and then centrifuged at 4° C. at 1000 g for 10 min. The supernatant was taken. The above steps were repeated. The supernatant was centrifuged (33800 g; Thermo, rotor: A27-8×50) at 4° C. for 60 min. The pellet was resuspended in Tris buffer (50 mM Tris-HCl, 10 mM MgCl2, 0.5 mM EDTA, and 10% glycerol). The protein content was determined (BCA (bicinchoninic acid) protein quantification assay based on the copper ion reduction method, with a BCA kit purchased from Pierce (Annoron (Beijing) Biotechnology Co., Ltd.)), and 1 mL aliquots were prepared and stored at −80° C.
Radioligand competitive binding assay: This assay was performed in a 200 μL system (96-well plate) containing 100 μL of cell membranes. The concentration of ^3H-flunitrazepam was 1 nM, and the concentrations of the test compounds were in the range of […]. Flumazenil was used as a control. To each low control (LC) well was added 1 μL of 2 mM flumazenil (the final concentration of 10 μM), and to each high control (HC) well was added 1 μL of dimethyl sulfoxide. The final concentration of the target membrane protein was […]. All sample stock solutions of test compounds were 10 mM solutions in dimethyl sulfoxide. All the samples were diluted to a concentration of 0.2 mM with dimethyl sulfoxide, and then subjected to a 4-fold serial dilution to give a total of 8 working concentration gradients. The 96-well plate was sealed with a plate sealing membrane and then incubated on a shaker at room temperature for 1 h. Meanwhile, a GF/C filter plate was soaked in a plate soaking buffer (0.3% PEI (polyethyleneimine, purchased from: Sigma-Aldrich, model: P314), stored at 4° C.) for at least 0.5 h. After the binding incubation was completed, the cells were harvested onto the GF/C filter plate using a cell harvester and washed 4 times with a washing buffer (50 mM Tris-HCl, pH 7.4, stored at 4° C.). After drying in an oven at 50° C. for 1 h, the dried GF/C filter plate was bottom-sealed. The residual radioactivity on the filter membrane was detected by liquid scintillation counting. Scintillation fluid was added at 50 µL/well, and then the plate was sealed. Readings were taken using Microbeta^2 (microplate counter, purchased from: PerkinElmer, model: CNLL0153). The inhibitory activity of the test samples on the binding of ^3H-flunitrazepam to the GABAA receptor membrane protein was calculated.

The target in the next assay is T2, α1-GABAA receptor (Homo sapiens, UniProt P14867+P18507).
T2 construct: expressed in transfected cells
In words: Whole-cell patch-clamp electrophysiological test of positive allosteric modulation, α1-GABAAR-HEK293 cells. It counts as cell-based. To be noted: compound 100 nM; GABA about EC2-4; normalised to positive compound CVL-865 (=100%); negative value = reverse allosteric modulation; read-out: Positive allosteric modulation activity on α1-GABAAR.
Description: as §1, §2
(§3) The positive regulation activity of the test drugs on the α1-GABAA receptor and the α2-GABAA receptor was detected by the electrophysiological method. The specific method was as follows:
(§4) Compound concentration setting: the final concentration of the compounds used for screening was 100 nM. […] The components of the extracellular solution (ECS) for electrophysiology were as follows: 150 mM NaCl, 5 mM KCl, 2.5 mM CaCl2, 1 mM MgCl2, 10 mM HEPES, and 10 mM glucose (pH 7.4); the formulation of the intracellular solution (ICS) of electrodes for electrophysiology was as follows: 140 mM CsCl, 11 mM EGTA, 10 mM HEPES, 2 mM CaCl2, 1 mM MgCl2, 4 mM MgATP, and 2 mM TEA (pH 7.3). GABA (γ-aminobutyric acid) powder was prepared into a mother liquor with pure water, which was then diluted in ECS; the compounds were first prepared into 4 mM mother liquors with dimethyl sulfoxide and then gradually diluted to corresponding concentrations in GABA-ECS. The solutions were all prepared freshly prior to the electrophysiological test.
(§5) Electrophysiological signal acquisition was performed using an EPC 10 amplifier and PatchMaster software (HEKA) or an Axon700B amplifier and Clampex software (AXON).
(§6) The recording electrode was made by pulling borosilicate glass, with an electrode resistance of 4-6 MΩ. Extracellular administration was performed using the ALA-VC-8PG™ system. A single, independently growing cell was selected. After the glass electrode formed a good seal with the cell, the membrane was ruptured to form the whole-cell configuration. The cell membrane potential was clamped at −60 mV and recorded in Gap-free mode. During the test, the extracellular solution was first applied extracellularly for about 20 s. After the baseline (Iprebaseline) stabilized, the extracellular solution was switched to GABA-ECS. At this time, the current caused by GABA (Igaba) could be detected. After about 10-20 s, when the current stabilized, the extracellular solution was switched to a mixed solution of the compound and GABA-ECS. At this point, the current caused by both the compound and GABA (Itreatment) could be detected. Finally, the solution was switched to the extracellular solution, and the test was terminated after recording for 20-40 s.
(§7) The current values at each stage were calculated based on the average value of the current after stabilization under the corresponding conditions. We defined the control current as Igaba−Iprebaseline, and the current after compound treatment as Itreatment−Iprebaseline. The allosteric modulation activity of the compounds was expressed as a percentage, calculated by the following formula: functional activity=[(Itreatment−Igaba)/(Igaba−Iprebaseline)]×100%.

Assay [2] deals with T1, α2-GABAA receptor. The experiment in a line: Whole-cell patch-clamp electrophysiological test of positive allosteric modulation, α2-GABAAR-HEK293 cells. It counts as cell-based. To be noted: compound 100 nM; GABA 0.10-0.11 M [sic] (about EC70.8); normalised to positive compound CVL-865 (=100%); read-out: Positive allosteric modulation activity on α2-GABAAR.
Description: as §1, §2, §3, §4, §5, §6, §7
(Patch clamp records ionic current or voltage across a cell membrane.)

Consider `CCn1cnc2c(-c3ccc(F)c(-c4ccn5c(C6CC6)nnc5c4COC)c3)cnnc21` [Example 1, 4-(3-(3-Cyclopropyl-8-(methoxymethyl)-[1,2,4]triazolo[4,3-a]pyridin-7-yl)-4-fluorophenyl)-7-ethyl-7H-imidazo[4,5-c]pyridazine], for which, at α2-GABAA receptor [1], the Ki is 10.5 nM. Also, the activation at 0.1 µM on α1-GABAA receptor came to 70%; on α2-GABAA receptor [2], 129%.
Take `CCn1cnc2c(-c3ccc(F)c(-c4ccn5c(C6CC(OC)C6)nnc5c4OC)c3)cnnc21` (centres unmarked) [Example 6, 7-Ethyl-4-(4-fluoro-3-(8-methoxy-3-(3-methoxycyclobutyl)-[1,2,4]triazolo[4,3-a]pyridin-7-yl)phenyl)-7H-imidazo[4,5-c]pyridazine]: the activation at 0.1 µM is -16% on α1-GABAA receptor and 118% on α2-GABAA receptor [2].
Regarding `CCn1cnc2c(-c3ccc(F)c(-c4cn5cc(C6(F)CC6)nc5cc4OC)c3)cnnc21` [Example 12, 7-Ethyl-4-(4-fluoro-3-(2-(1-fluorocyclopropyl)-7-methoxyimidazo[1,2-a]pyridin-6-yl)phenyl)-7H-imidazo[4,5-c]pyridazine], the Ki on α2-GABAA receptor [1] is 5.79 nM. Also, the activation at 0.1 µM was determined as 32% at α1-GABAA receptor and 104% at α2-GABAA receptor [2].
The matching figures for `CCn1cnc2c(-c3ccc(F)c(-c4ccn5c(C6CCOC(C)(C)C6)nnc5c4OC)c3)cnnc21` (centres unmarked) [Example 16, 4-(3-(3-(2,2-Dimethyltetrahydro-2H-pyran-4-yl)-8-methoxy-[1,2,4]triazolo[4,3-a]pyridin-7-yl)-4-fluorophenyl)-7-ethyl-7H-imidazo[4,5-c]pyridazine]: 8.17 nM, -56% and 95%.
`CCn1cnc2c(-c3ccc(F)c(-c4ccn5c(C6CCC6)nnc5c4OC)c3)cnnc21` [Example 17, 4-(3-(3-Cyclobutyl-8-methoxy-[1,2,4]triazolo[4,3-a]pyridin-7-yl)-4-fluorophenyl)-7-ethyl-7H-imidazo[4,5-c]pyridazine]: the Ki at α2-GABAA receptor [1] was 2.85 nM. Besides, the values for the activation at 0.1 µM at α1-GABAA receptor and at α2-GABAA receptor [2] were -49% and 100%, respectively.
The corresponding values for `COc1c(-c2cc(-c3cnnc4c3ncn4C(C)C)ccc2F)ccn2c(C3CC3)nnc12` [Example 27, 4-(3-(3-Cyclopropyl-8-methoxy-[1,2,4]triazolo[4,3-a]pyridin-7-yl)-4-fluorophenyl)-7-isopropyl-7H-imidazo[4,5-c]pyridazine] are 6.05 nM, 4% and 110%.
The corresponding values for `CCn1cnc2c(-c3ccc(F)c(-c4ccn5c(C6COC6)nnc5c4OC)c3)cnnc21` [Example 28, 7-Ethyl-4-(4-fluoro-3-(8-methoxy-3-(oxetan-3-yl)-[1,2,4]triazolo[4,3-a]pyridin-7-yl)phenyl)-7H-imidazo[4,5-c]pyridazine] are 5.12 nM, 19% and 126%.
Turning to `CCn1cnc2c(-c3ccc(F)c(-c4ccn5c(C(C)C)nnc5c4OC)c3)cnnc21` [Example 29, 7-Ethyl-4-(4-fluoro-3-(8-methoxy-3-isopropyl-[1,2,4]triazolo[4,3-a]pyridin-7-yl)phenyl)-7H-imidazo[4,5-c]pyridazine], the Ki at α2-GABAA receptor [1] is 6.6 nM. The values for the activation at 0.1 µM on α1-GABAA receptor and at α2-GABAA receptor [2] were -51% and 156%, respectively.
The matching figures for `CCc1cn2cc(-c3cc(-c4cnnc5c4ncn5CC)ccc3F)c(OC)cc2n1` [Example 30, 7-Ethyl-4-(3-(2-ethyl-7-methoxyimidazo[1,2-a]pyridin-6-yl)-4-fluorophenyl)-7H-imidazo[4,5-c]pyridazine]: 12 nM, 6% and 143%.
The matching figures for `CCn1cnc2c(-c3ccc(F)c(-c4ccn5c(C)nnc5c4OC)c3)cnnc21` [Example 32, 7-Ethyl-4-(4-fluoro-3-(8-methoxy-3-methyl-[1,2,4]triazolo[4,3-a]pyridin-7-yl)phenyl)-7H-imidazo[4,5-c]pyridazine]: 2.89 nM, -39% and 102%.
Turning to `CCn1cnc2c(-c3ccc(F)c(-c4ccn5c(C6CCOCC6)nnc5c4OC)c3)cnnc21` [Example 34, 7-Ethyl-4-(4-fluoro-3-(8-methoxy-3-(tetrahydro-2H-pyran-4-yl)-[1,2,4]triazolo[4,3-a]pyridin-7-yl)phenyl)-7H-imidazo[4,5-c]pyridazine], the Ki at α2-GABAA receptor [1] was 8.13 nM. Moreover, the activation at 0.1 µM at α1-GABAA receptor came to 25%; at α2-GABAA receptor [2], 95%.
The matching figures for `CCn1cnc2c(-c3ccc(F)c(-c4cn5cc(C6CCOCC6)nc5cc4OC)c3)cnnc21` [Example 36, 7-Ethyl-4-(4-fluoro-3-(7-methoxy-2-(tetrahydro-2H-pyran-4-yl)imidazo[1,2-a]pyridin-6-yl)phenyl)-7H-imidazo[4,5-c]pyridazine]: 11.8 nM, 49% and 89%.
For `CCn1cnc2c(-c3ccc(F)c(-c4ccn5c(C6CC6)nnc5c4OC)c3)cnnc21` [Example 38, 4-(3-(3-Cyclopropyl-8-methoxy-[1,2,4]triazolo[4,3-a]pyridin-7-yl)-4-fluorophenyl)-7-ethyl-7H-imidazo[4,5-c]pyridazine], the inhibition constant Ki on α2-GABAA receptor [1] was 6.53 nM. In addition, the activation at 0.1 µM on α1-GABAA receptor is -14%; on α2-GABAA receptor [2], 94%.
